Laboratory results taken from patent US20200215065A1, “COMPOSITIONS AND METHOD FOR TREATING PULMONARY HYPERTENSION” (THE REGENTS OF THE UNIVERSITY OF COLORADO, a body corporate, priority 2017, published 2020).
≈ marks a conversion by molar mass, not a printed value.

Columns and labels:
[1] = Solubility of ambrisentan in PBS; format: physicochemical; details: pH 7.8, aqueous buffer, pH raised to 7.8
Excerpt: The aqueous solution of ambrisentan was then mixed with Krytox and PFOB and emulsified as previously described.

[2] = test system: hypoxic pulmonary vasoconstriction (HPV) response; assay: Acute hypoxic rat model: pulmonary (PAP) and systemic (MAP) arterial pressure after treatment; format: in vivo
Procedure: Surgical procedures and hemodynamic measurements: Rats were anesthetized by intramuscular injection with ketamine/xylazine mixture (75 and 6 mg/kg, respectively). The ventral neck was shaved and a 2 cm incision was made in the right ventral neck where the jugular vein and right carotid artery were isolated via blunt dissection. A polyethylene (PE-50) catheter was introduced into the right carotid to measure systemic blood pressure. A polyvinyl (PV-1) catheter was inserted into the jugular vein and threaded through the right atrium, right ventricle, and into the lumen of the main pulmonary artery to obtain pulmonary arterial pressure. Fluid filled catheters were connected to pressure transducers and monitored continuously with the MP150 data acquisition system (BioPAC Systems; Goleta, Calif.). Blood pressures were recorded every two minutes for data analysis.
After completion of catheter placements and instrumentation for hemodynamic measurements, a 1 cm incision was made above the trachea, and the trachea was isolated by blunt dissection. A tracheotomy was performed approximately 4 mm above the carina and an endotracheal tube specially designed for rats was inserted such that the end of the tube was placed roughly 2 mm distal from the carina. This placement allowed the tip of a Microsprayer® attached to the FMJ-250 syringe (Penn-Century; Philadelphia, Pa.) to protrude approximately 1 mm from the trachea tube and deliver aerosolized emulsion to both right and left lung periphery (FIG. 1A).
Testing efficacy of intrapulmonary delivery of ambrisentan: following instrumentation and tracheotomy, anesthetized rats were placed in a specially designed Plexiglas box built to accommodate exteriorized catheters for completion of the study protocol (depicted graphically in FIG. 1B). Baseline PAP and mean systemic arterial pressure (MAP) were recorded. Next, rats were switched from breathing room air to a hypoxic gas mixture for 10 minutes. Acute hypoxia was induced in rats by exposure to 13% O2 (room air/nitrogen dilution; FIG. 1A). […] This first hypoxic challenge was followed by 20 minutes of room air breathing. […] During this period of room air breathing, rats were allowed to recover from hypoxia for 10 minutes prior to treatment administration via the Microsprayera Treatments were delivered as a 100-microliter bolus aerosol immediately following emulsification to avoid potential phase separation. Following treatment, rats remained breathing room air for an additional 10 minutes to allow drug absorption before being exposed to a second 10-minute hypoxic challenge. Following the second hypoxic challenge, rats returned to breathing room air and blood pressures were monitored for 15 minutes before animals were euthanized with intravenous injection of a euthanasia agent.
Intravenous infusion: As a reference to aid in understanding the response of intrapulmonary delivery of ambrisentan, an additional treatment group for intravenous (IV) infusion of ambrisentan was also investigated (5 mg/kg; 0.5 mL saline). […]
This study was conducted to test the use and efficacy of a water-in-fluorocarbon emulsion of this disclosure to encapsulate ambrisentan or sodium nitrite for intrapulmonary drug delivery. An acute hypoxic rat model was used, and pulmonary and systemic arterial pressure were recorded to determine efficacy of the drug delivery system for treatment of the acute hypoxic pulmonary vasoconstrictive response. […]

| Structure (SMILES) | solubility [1] | MAP during the second hypoxic challenge ([2]; in vivo) | adverse effects (systemic arterial pressure during acute hypoxia) ([2]; in vivo) | pulmonary arterial pressure compared to the empty emulsion ([2]; acute hypoxia, intrapulmonary emulsion, 0.1 mg/kg) | adverse effects (systemic arterial pressure during acute hypoxia) ([2]; intrapulmonary emulsion) | mean pulmonary arterial pressure when exposed to acute hypoxia ([2]; intrapulmonary emulsion, high dose 0.5 mg/kg) |
| --- | --- | --- | --- | --- | --- | --- |
| COC(c1ccccc1)(c1ccccc1)[C@H](Oc1nc(C)cc(C)n1)C(=O)O [ambrisentan] | ~100 mg/mL (≈ 264 mM) | did not further reduce | no adverse effects were observed |  |  |  |
| O=NO [sodium nitrite] |  |  |  | did not significantly change | no adverse effects were observed | significantly reduced |
